Results from patent US8088918B2, “Noncardiotoxic pharmaceutical compounds” (Williamsburg Holdings LLC, priority 2004, dated 2012).

Key:
[1] = healthy volunteers, therapeutic plasma concentrations; cited from earlier work
[2] = human plasma; cited from earlier work
[3] = parent drugs; cited from earlier work
[4] = Stability testing of prodrugs in rat plasma (elevated esterase activity); format: in vitro ADME, Sprague-Dawley rat; settings: 10 μM, ca. 37° C.
Method: Sprague-Dawley rat plasma was obtained by collection into sodium EDTA as the anticoagulant, and was stored at ca −20° C. prior to use. Prior to use, the plasma defrosted and was spun at ca. 3000 rpm for 5 minutes to remove any precipitate. The pH of the plasma was adjusted to pH 7.4 by careful addition of NaH2PO4 buffer.
Plasma stability was assessed by incubation of 10 μM of each compound prepared in Examples 1-5 with rat plasma, in duplicate, at ca. 37° C. with shaking. Each compound prepared in Examples 1-5 was also incubated at 10 μM in PBS as a control for compound heat stability. Aliquots were removed at 0, 0.5, 1 and 2 hours and stored at −20° C. until analysis.
For analysis, plasma samples were extracted in 1 part acetonitrile and isolation of the supernatant. Analysis of each compound prepared in Examples 1-5 in plasma extracts was conducted by an LC-MS method at each time interval and quantification was achieved by comparison of the response due to the sample to that of a three point standard curve. Appearance of the parent drug and the hydroxymetabolites were also monitored at each time interval. The % degradation following incubation at each time point was calculated by comparison of the parent concentration to that at 0 minutes.

CYP2D6 [5] = target: T1, CYP2D6 (Homo sapiens, UniProt P10635); test: Metabolic stability in the presence of CYP2D6 isozyme; format: in vitro ADME; set-up: purchased BD Gentest (Woburn, Mass.); settings: 10 μm compound
Method: (§1) The metabolic stability of each compound prepared in Examples 1-5 was assessed in the presence of CYP2D6 and CYP3A4 obtained from BD Gentest (Woburn, Mass.).
(§2) The metabolic stability of each compound prepared in Examples 1-5 was assessed in duplicate by incubation of 10 μm compound with recombinant human CYP2D6 and 3A4 using similar conditions to those in Example 9. Samples were removed for analysis at 0, 30 and 60 minutes and extracted with one volume of organic solvent. Appropriate controls were included. Quantification of the disappearance of the prodrug was conducted LC-MS. Appearance of metabolites was also monitored.

[6] = Stability testing of prodrugs in human plasma; format: in vitro ADME; settings: 10 μM, ca. 37° C.
Method: Pooled human plasma was obtained from Bioreclamation (East Meadow, N.Y.) by collection into sodium EDTA as the anticoagulant, and was stored at ca −20° C. prior to use. Prior to use, the plasma defrosted and was spun at ca. 3000 rpm for 5 minutes to remove any precipitate. The pH of the plasma was adjusted to pH 7.4 by careful addition of NaH2PO4 buffer.
Plasma stability was assessed by incubation of 10 μM of each compound prepared in Examples 1-5 with human plasma, in duplicate, at ca. 37° C. with shaking. Each compound prepared in Examples 1-5 was also incubated at 10 μM in PBS as a control for compound heat stability. Aliquots were removed at 0, 0.5, 1 and 2 hours and stored at −20° C. until analysis.
For analysis, plasma samples were extracted in 1 part acetonitrile and isolation of the supernatant. Analysis of each compound prepared in Examples 1-5 in plasma extracts was conducted by an LC-MS method at each time interval and quantification was achieved by comparison of the response due to the sample to that of a three point standard curve. Appearance of the parent drug the hydroxymetabolites were also monitored at each time interval. The % degradation following incubation at each time point was calculated by comparison of the parent concentration to that at 0 minutes.

[7] = Metabolic stability, microsomal incubations with ketoconazole (CYP3A4 inhibitor); format: in vitro ADME; settings: 10 μM, 0.5 mg/mL microsomal protein
Method: (§3) The metabolic stability of each compound prepared in Examples 1-5 was assessed in microsomal preparations obtained from BD Gentest (Woburn, Mass.).
(§4) The metabolic stability of each compound prepared in Examples 1-5 was assessed in duplicate by incubation of 10 μM compound with 0.5 mg/mL microsomal protein, 1 mM in 0.1 M phosphate buffer, pH 7.4 in the presence and absence of a CYP3A4 inhibitor (ketoconazole). The reaction mixture was pre-incubated, in the absence of the microsomes, at ca. 37° C. for 5 minutes, followed by initiation of the incubation by the addition of microsomal protein and maintained at ca. 37° C. for a further 0, 30 and 60 minutes. After the appropriate incubation time, the mixtures were quenched by the addition of one volume of acetonitrile and the supernatant was isolated by centrifugation. Positive control incubations (7-ethoxycoumarin) were performed in the same manner as the compounds from Examples 1-5 and quenched after 0 and 30 minutes. In addition, negative control incubations were performed for 60 minutes in the absence of NADPH to assess chemical stability.
(§5) Analysis of supernatants from each time interval was conducted for each compound prepared in Examples 1-5 by LC-MS analysis. Quantification of the disappearance on the parent drug was achieved by comparison of the sample response to that of a suitable standard curve constructed in 0.1 M phosphate buffer, pH 7.4. The standard curve ranged between ≦1% up to ≧100% of the dosing concentration.
(§6) The % turnover following 60 minutes of incubation was calculated by comparison of the parent concentration to that at 0 minutes. The % degradation was calculated in the same manner from the negative control incubations. Appearance of the parent drug and the hydroxymetabolites were also monitored at each time interval.

[8] = Stability testing in simulated gastric fluids; settings: 10 μM, saline pH approximately 1 plus pepsin
recombinant human CYP3A4 = target: T2, recombinant human CYP3A4 (Homo sapiens, UniProt P08684); test: Metabolic stability in the presence of CYP3A4 isozyme; format: in vitro ADME; settings: 10 μm compound
T2 construct: purchased BD Gentest (Woburn, Mass.)
Method: as §1, §2

[9] = Stability testing in simulated intestinal fluids; settings: 10 μM
[10] = Metabolic stability, microsomal incubations without inhibitor; format: in vitro ADME; settings: 10 μM, 0.5 mg/mL microsomal protein
Method: as §3, §4, §5, §6

[11] = oral administration; cited from earlier work
CYP2D6 [12] = target: T1, CYP2D6; settings: cited from earlier work
[13] = preclinical and clinical studies; cited from earlier work

T2 sequence (P08684 whole entry): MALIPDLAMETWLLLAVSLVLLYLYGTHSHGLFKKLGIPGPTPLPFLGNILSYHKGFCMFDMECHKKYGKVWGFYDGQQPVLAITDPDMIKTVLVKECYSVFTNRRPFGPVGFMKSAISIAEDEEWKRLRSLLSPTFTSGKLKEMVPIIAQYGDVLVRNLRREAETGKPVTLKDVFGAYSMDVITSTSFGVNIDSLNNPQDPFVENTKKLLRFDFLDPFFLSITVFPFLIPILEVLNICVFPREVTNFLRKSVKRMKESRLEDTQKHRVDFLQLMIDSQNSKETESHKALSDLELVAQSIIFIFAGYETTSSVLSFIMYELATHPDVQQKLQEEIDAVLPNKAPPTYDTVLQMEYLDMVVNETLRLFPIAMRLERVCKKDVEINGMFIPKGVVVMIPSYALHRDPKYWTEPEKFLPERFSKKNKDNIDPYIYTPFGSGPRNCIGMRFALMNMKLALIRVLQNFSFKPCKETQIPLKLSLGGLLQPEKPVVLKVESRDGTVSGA
T1 sequence (P10635 whole entry): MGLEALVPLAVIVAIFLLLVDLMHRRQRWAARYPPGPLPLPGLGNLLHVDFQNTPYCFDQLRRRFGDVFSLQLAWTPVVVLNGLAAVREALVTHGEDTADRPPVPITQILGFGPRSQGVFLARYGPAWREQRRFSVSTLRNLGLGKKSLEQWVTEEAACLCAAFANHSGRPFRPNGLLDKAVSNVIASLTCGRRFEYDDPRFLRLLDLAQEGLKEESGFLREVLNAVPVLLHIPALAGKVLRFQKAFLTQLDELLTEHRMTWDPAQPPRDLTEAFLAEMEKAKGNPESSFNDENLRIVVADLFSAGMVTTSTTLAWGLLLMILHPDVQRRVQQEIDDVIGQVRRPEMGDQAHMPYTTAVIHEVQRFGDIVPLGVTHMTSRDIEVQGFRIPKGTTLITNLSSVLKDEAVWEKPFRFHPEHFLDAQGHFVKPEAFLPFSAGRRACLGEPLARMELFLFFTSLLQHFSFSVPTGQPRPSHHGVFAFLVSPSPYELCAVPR

Q: With `CC(CC(c1ccccc1)c1ccccc1)NC(C)(C)C` (stereo not shown) [terodiline] as the compound, how does the “increase in mean QTc” value [1] read?
A: 23 ms

Q: For `Fc1ccc([C@@H]2CCNC[C@H]2COc2ccc3c(c2)OCO3)cc1` [paroxetine], which AUC(0-24) [2] is on record?
A: 96.5 ng·h/mL

Q: What about the Cmax [2] of the same compound?
A: 8.60 ng/mL

Q: What about the Tmax [2] of the same compound?
A: 5 (3-5) hours

Q: What about the pKa [3] of the same compound?
A: 9.90

Q: What does the source list for `COC(=O)N(C)CCCN1c2ccccc2CCc2ccccc21` [RIC-5a, [3-(10,11-Dihydro-dibenzo[b,f]azepin-5-yl)-propyl]-methyl-carbamic acid methyl ester]?
A: Loss of parent compound in rat plasma (%) ([4]; incubation time 0 min): 0.00%; Loss of parent compound in rat plasma (%) ([4]; incubation time 30 min): 8.81%; Loss of parent compound in rat plasma (%) ([4]; incubation time 60 min): 23.43%; Loss of parent compound in rat plasma (%) ([4]; incubation time 120 min): 45.85%; Loss of parent compound with CYP2D6 isozyme (%) (CYP2D6 [5]; incubation time 0 min): 0.00%; Loss of parent compound with CYP2D6 isozyme (%) (CYP2D6 [5]; incubation time 30 min): 73.91%; Loss of parent compound with CYP2D6 isozyme (%) (CYP2D6 [5]; incubation time 60 min): 83.13%; Loss of parent compound in human plasma (%) ([6]; incubation time 0 min): 0.00%; Loss of parent compound in human plasma (%) ([6]; incubation time 30 min): 5.47%; Loss of parent compound in human plasma (%) ([6]; incubation time 60 min): 15.80%; Loss of parent compound in human plasma (%) ([6]; incubation time 120 min): 26.22%; Loss of parent compound with ketoconazole (%) ([7]; incubation time 30 min): 27.65%; Loss of parent compound with ketoconazole (%) ([7]; incubation time 60 min): 62.37%; Loss of parent compound in simulated gastric fluid (%) ([8]; incubation time 0 min): 0.00%; Loss of parent compound in simulated gastric fluid (%) ([8]; incubation time 30 min): 13.93%; Loss of parent compound in simulated gastric fluid (%) ([8]; incubation time 60 min): 31.78%; Loss of parent compound in simulated gastric fluid (%) ([8]; incubation time 120 min): 81.43%; Loss of parent compound with CYP3A4 isozyme (%) (recombinant human CYP3A4; incubation time 0 min): 0.00%; Loss of parent compound with CYP3A4 isozyme (%) (recombinant human CYP3A4; incubation time 30 min): 91.32%; Loss of parent compound with CYP3A4 isozyme (%) (recombinant human CYP3A4; incubation time 60 min): 97.96%; Loss of parent compound in simulated intestinal fluid (%) ([9]; phosphate pH 6, incubation time 0 min): 0.00%; Loss of parent compound in simulated intestinal fluid (%) ([9]; phosphate pH 6, incubation time 30 min): 16.75%; Loss of parent compound in simulated intestinal fluid (%) ([9]; phosphate pH 6, incubation time 60 min): 22.88%; Loss of parent compound in simulated intestinal fluid (%) ([9]; phosphate pH 6, incubation time 120 min): 35.18%; Loss of parent compound with no ketoconazole (%) ([10]; incubation time 30 min): 70.94%; Loss of parent compound with no ketoconazole (%) ([10]; incubation time 60 min): 87.25%

Q: Which systemic availability [11] does the source give for `C[N+](C)([O-])CCCN1c2ccccc2CCc2ccccc21` [imipramine-N-oxide, Imipramine-N-oxide] here?
A: about 100%

Q: And the “metabolism by CYP2D6 to the hydroxymetabolite” value (CYP2D6 [12])?
A: abolished the metabolism of imipramine by CYP2D6 to the hydroxymetabolite

Q: And the “cardiotoxicity compared with imipramine” value [13]?
A: significantly reduced
